Experimental data as given in US9045482B2, “Pyrido[4,3-B]indoles and methods of use” (Medivation Technologies, Inc., priority 2009, dated 2015).

Experiments:
[1] = target: human recombinant histamine H1 receptor (Homo sapiens, UniProt P35367); test: Histamine H1 radioligand binding ([3H]Pyrilamine); details: 1 μM; for inhibition at 1 µM: read-out: Binding data (Percentage Inhibition) Histamine Binding H1
Description: To evaluate in radioligand binding assays the activity of compounds of the invention, human recombinant histamine H1 receptor expressed in Chinese hamster ovary (CHO) cells [De Backer, M. et al., Biochem. Biophys. Res. Comm. (1993), 197(3):1601] in a modified Tris-HCl buffer (50 mM Tris-HCl, pH 7.4, 2 mM MgCl2, 100 mM NaCl, 250 mM Sucrose) was used. Compounds of the invention were incubated with 1.2 nM [^3H]Pyrilamine for 180 min at 25° C. Non-specific binding was estimated in the presence of 1 μM pyrilamine. Receptor proteins were filtered and washed, the filters were then counted to determine [^3H]Pyrilamine specifically bound. Compounds were screened at 1 μM or lower, using 1% DMSO as vehicle. Biochemical assay results are presented as the percent inhibition of specific binding in Table 2.

[2] = target: T1, human recombinant histamine H2 receptor (Homo sapiens, UniProt P25021); test: Histamine H2 radioligand binding (Aminopotentidine); details: read-out: Binding data (Percentage Inhibition) Histamine Binding H2
T1 construct: expressed in transfected cells; host or cells: Chinese hamster ovary (CHO) K1 cells
Description: To evaluate in radioligand binding assays the activity of compounds of the invention, human recombinant histamine H2 receptor expressed in Chinese hamster ovary (CHO) K1 cells [Ruat, M., Proc. Natl. Acad. Sci. USA. (1990), 87(5):1658] in a 50 mM Phosphate buffer, pH 7.4 was used. Compounds of the invention were incubated with 0.1 nM […] for 120 min at 25° C. Non-specific binding was estimated in the presence of 3 μM Tiotidine. Receptor proteins were filtered and washed, the filters were then counted to determine […] specifically bound. Compounds were screened at 1 μM or lower, using 1% DMSO as vehicle. Biochemical assay results are presented as the percent inhibition of specific binding in Table 2.

[3] = target: human recombinant dopamine D2L receptor (Homo sapiens, UniProt P14416); test: Dopamine D2L radioligand binding ([3H]Spiperone)
Description: To evaluate in radioligand binding assays the activity of compounds of the invention, human recombinant dopamine D2L receptor expressed in Chinese hamster ovary (CHO) cells [Grandy, D. K. et al., Proc. Natl. Acad. Sci. USA. (1989), 86:9762; Hayes, G. et al., Mol. Endocrinol. […] Compounds of the invention were incubated with 0.16 nM [^3H]Spiperone for 120 min at 25° C. Non-specific binding was estimated in the presence of 10 μM Haloperidol. Receptor proteins were filtered and washed, the filters were then counted to determine [^3H]Spiperone specifically bound. Compounds were screened at 1 μM or lower, using 1% DMSO as vehicle. Biochemical assay results are presented as the percent inhibition of specific binding in Table 3.

[4] = target: T2, human recombinant serotonin (5-Hydroxytryptamine) 5-HT2A receptor (Homo sapiens, UniProt P28223); test: Serotonin 5-HT2A radioligand binding ([3H]Ketanserin)
T2 construct: expressed in transfected cells; host or cells: Chinese hamster ovary (CHO-K1) cells
Description: (§1) (1997), 68:1998] in a 50 mM Tris-HCl buffer, pH 7.4, was used. Compounds of the invention were incubated with 0.5 nM [^3H]Ketanserin for 60 min at 25° C. Non-specific binding was estimated in the presence of 1 μM Mianserin. Receptor proteins were filtered and washed, the filters were then counted to determine [^3H]Ketanserin specifically bound. Compounds were screened at 1 μM or lower, using 1% DMSO as vehicle. Biochemical assay results are presented as the percent inhibition of specific binding in Table 4.

[5] = target: T3, human recombinant serotonin (5-Hydroxytryptamine) 5-HT2C receptor (Homo sapiens, UniProt P28335); test: Serotonin 5-HT2C radioligand binding ([3H]Mesulergine)
T3 construct: expressed in transfected cells; host or cells: Chinese hamster ovary (CHO-K1) cells
T3 sequence (P28335 33-458): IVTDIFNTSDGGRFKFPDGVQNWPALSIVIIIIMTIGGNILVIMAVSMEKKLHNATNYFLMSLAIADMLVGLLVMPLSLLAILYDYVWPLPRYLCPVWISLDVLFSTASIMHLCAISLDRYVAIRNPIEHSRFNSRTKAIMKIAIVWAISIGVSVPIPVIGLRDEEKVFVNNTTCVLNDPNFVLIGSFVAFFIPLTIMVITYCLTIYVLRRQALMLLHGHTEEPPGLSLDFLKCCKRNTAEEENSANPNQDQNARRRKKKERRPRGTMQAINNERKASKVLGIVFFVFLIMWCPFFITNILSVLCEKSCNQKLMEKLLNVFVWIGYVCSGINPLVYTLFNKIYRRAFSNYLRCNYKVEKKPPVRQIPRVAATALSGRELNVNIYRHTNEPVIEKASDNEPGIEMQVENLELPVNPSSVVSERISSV
Description: as §1, with “69:1449]” for “68:1998]”, “modified Tris-HCl buffer (50” for “50”, “Tris-HCl,” for “Tris-HCl buffer,”, “7.4, 0.1% Ascorbic Acid, 10 μM Pargyline)” for “7.4,”, “1” for “0.5”, “[^3H]Mesulergine” for “[^3H]Ketanserin”

[6] = target: T4, human recombinant serotonin (5-Hydroxytryptamine) 5-HT6 receptor (Homo sapiens, UniProt P50406); test: Serotonin 5-HT6 radioligand binding ([3H]LSD)
T4 construct: expressed in transfected cells; host or cells: human HeLa cells
Description: (§2) Compounds of the invention were incubated with 1.5 nM [3H]Lysergic acid diethylamide (LSD) for 120 min at 37° C. […] Receptor proteins were filtered and washed, the filters were then counted to determine [3H]LSD specifically bound. Compounds were screened at 1 μM or lower, using 1% DMSO as vehicle. Biochemical assay results are presented as the percent inhibition of specific binding in Table 4.

[7] = target: human recombinant serotonin (5-Hydroxytryptamine) 5-HT7 receptor (Homo sapiens, UniProt P34969); test: Serotonin 5-HT7 radioligand binding ([3H]LSD)
Description: as §2, with “of” for “of the”, “5.5” for “1.5”, “[^3H]Lysergic” for “[3H]Lysergic”, “2 h” for “120 min”, “25°” for “37°”, “[^3H]LSD” for “[3H]LSD”

Sequence of human recombinant dopamine D2L receptor (P14416 whole entry): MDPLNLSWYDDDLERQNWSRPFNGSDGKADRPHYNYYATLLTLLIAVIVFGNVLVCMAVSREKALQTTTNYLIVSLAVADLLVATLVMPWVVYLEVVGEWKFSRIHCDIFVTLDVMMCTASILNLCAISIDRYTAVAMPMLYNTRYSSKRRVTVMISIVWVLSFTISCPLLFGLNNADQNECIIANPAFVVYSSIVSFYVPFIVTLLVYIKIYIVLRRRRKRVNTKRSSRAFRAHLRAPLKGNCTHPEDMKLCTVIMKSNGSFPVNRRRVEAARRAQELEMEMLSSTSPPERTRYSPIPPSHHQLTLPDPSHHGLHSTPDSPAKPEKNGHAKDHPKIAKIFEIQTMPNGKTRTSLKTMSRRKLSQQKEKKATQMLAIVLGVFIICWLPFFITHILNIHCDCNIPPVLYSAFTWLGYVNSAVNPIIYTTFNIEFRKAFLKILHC
Sequence of human recombinant histamine H1 receptor (P35367 whole entry): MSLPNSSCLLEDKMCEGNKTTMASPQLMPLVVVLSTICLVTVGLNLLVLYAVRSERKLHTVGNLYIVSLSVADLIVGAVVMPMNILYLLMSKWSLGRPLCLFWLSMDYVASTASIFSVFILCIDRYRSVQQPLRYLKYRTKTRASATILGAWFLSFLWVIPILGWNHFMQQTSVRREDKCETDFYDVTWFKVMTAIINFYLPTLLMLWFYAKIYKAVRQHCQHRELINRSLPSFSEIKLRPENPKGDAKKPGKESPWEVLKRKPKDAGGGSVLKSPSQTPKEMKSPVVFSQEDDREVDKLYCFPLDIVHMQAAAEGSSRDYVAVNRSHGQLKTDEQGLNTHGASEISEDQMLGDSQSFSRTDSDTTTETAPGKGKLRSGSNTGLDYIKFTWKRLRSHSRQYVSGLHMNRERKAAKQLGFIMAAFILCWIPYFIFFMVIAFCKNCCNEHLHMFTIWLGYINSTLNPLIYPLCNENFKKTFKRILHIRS
Sequence of human recombinant serotonin (5-Hydroxytryptamine) 5-HT7 receptor (P34969 whole entry): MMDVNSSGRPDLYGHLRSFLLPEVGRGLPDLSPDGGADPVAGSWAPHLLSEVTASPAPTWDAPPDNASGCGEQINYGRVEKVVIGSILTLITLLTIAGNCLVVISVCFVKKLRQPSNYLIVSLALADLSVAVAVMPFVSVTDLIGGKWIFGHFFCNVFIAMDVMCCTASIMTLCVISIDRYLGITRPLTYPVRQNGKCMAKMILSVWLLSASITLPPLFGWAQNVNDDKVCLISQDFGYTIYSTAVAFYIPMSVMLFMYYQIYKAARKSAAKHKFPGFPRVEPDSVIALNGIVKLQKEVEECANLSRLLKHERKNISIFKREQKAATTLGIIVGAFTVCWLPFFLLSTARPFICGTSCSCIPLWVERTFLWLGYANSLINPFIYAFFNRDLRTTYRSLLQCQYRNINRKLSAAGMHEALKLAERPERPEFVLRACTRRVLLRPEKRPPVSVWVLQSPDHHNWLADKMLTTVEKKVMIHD
T2 sequence (P28223 whole entry): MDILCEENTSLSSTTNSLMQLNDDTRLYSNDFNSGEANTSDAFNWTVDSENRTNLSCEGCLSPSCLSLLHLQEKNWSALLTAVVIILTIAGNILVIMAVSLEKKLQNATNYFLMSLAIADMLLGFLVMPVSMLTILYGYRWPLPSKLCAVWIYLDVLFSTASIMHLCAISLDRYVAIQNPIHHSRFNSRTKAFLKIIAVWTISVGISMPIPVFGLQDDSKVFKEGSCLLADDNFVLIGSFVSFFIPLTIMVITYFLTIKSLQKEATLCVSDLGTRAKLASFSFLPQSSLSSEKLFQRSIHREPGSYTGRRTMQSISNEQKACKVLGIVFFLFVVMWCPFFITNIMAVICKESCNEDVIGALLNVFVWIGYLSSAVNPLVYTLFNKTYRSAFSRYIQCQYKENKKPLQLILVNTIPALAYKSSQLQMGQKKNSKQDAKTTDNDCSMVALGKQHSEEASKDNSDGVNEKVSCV
T4 sequence (P50406 whole entry): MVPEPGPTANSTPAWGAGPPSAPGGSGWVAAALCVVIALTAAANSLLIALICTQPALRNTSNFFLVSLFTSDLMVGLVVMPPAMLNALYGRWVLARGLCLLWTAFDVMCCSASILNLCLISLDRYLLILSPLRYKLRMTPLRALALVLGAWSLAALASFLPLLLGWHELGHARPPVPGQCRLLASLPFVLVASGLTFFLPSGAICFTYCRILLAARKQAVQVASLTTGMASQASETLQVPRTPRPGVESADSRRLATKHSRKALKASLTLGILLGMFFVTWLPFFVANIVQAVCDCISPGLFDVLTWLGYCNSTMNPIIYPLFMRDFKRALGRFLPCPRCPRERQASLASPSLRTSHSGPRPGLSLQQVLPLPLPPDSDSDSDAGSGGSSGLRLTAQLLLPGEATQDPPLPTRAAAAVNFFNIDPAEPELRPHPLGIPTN
T1 sequence (P25021 whole entry): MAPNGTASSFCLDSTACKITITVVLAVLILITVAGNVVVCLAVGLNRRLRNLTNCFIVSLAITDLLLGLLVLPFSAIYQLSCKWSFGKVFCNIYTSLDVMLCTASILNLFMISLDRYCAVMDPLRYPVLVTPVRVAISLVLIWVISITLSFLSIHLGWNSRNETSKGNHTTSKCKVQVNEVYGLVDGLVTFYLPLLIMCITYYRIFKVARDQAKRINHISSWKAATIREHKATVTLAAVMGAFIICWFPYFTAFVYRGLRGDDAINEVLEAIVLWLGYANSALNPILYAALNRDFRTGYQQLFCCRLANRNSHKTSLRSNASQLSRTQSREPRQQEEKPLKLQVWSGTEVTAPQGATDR

## CC(=Cn1c2c(c3cc(C)ccc31)CN1CCCCC1C2)c1ccc(F)cc1 (stereo in doubt) [Compound 5, (E)-5-(2-(4-fluorophenyl)prop-1-enyl)-2-methyl-5,6,6a,7,8,9,10,12-octahydroindolo[2,3-b]quinolizine]
[1]
  inhibition at 1 µM: 76%
[2]
  inhibition at 1 µM: 97%
[3]; 1 μM ligand conc.
  Percent Inhibition of ligand binding Dopamine D2L: 28%
[4]; 1 μM ligand concentration
  Percent Inhibition of ligand binding Serotonin 5-HT2A: 98%
[5]; 1 μM ligand concentration
  Percent Inhibition of ligand binding Serotonin 5-HT2C: 92%
[6]; 1 μM ligand concentration
  Percent Inhibition of ligand binding Serotonin 5-HT6: 96%
[7]; 1 μM ligand concentration
  Percent Inhibition of ligand binding Serotonin 5-HT7: 97%

## FC(F)(F)c1ccc(CCn2c3c(c4cccnc42)CN2CCCC2C3)cn1 (stereo not drawn) [Compound 39, 11-(2-(6-(trifluoromethyl)pyridin-3-yl)ethyl)-7,8,9,9a,10,11-hexahydro-5H-pyrido[3′,2′:4,5]pyrrolo[3,2-f]indolizine]
[4]; 0.1 μM ligand concentration
  Percent Inhibition of ligand binding Serotonin 5-HT2A: 24%
[6]; 0.1 μM ligand concentration
  Percent Inhibition of ligand binding Serotonin 5-HT6: −5%
[7]; 0.1 μM ligand concentration
  Percent Inhibition of ligand binding Serotonin 5-HT7: 2%

## Cc1cnc2c(c1)c1c(n2CCc2ccc(C(F)(F)F)nc2)CC2CCCN2C1 (stereo not drawn) [Compound 44, 3-methyl-11-(2-(6-(trifluoromethyl)pyridin-3-yl)ethyl)-7,8,9,9a,10,11-hexahydro-5H-pyrido[3′,2′:4,5]pyrrolo[3,2-f]indolizine]
[4]; 0.1 μM ligand concentration
  Percent Inhibition of ligand binding Serotonin 5-HT2A: 65%
[6]; 0.1 μM ligand concentration
  Percent Inhibition of ligand binding Serotonin 5-HT6: 9%
[7]; 0.1 μM ligand concentration
  Percent Inhibition of ligand binding Serotonin 5-HT7: 24%

## FC(F)(F)c1ccc(CCn2c3c(c4cccnc42)C2CCCN2CC3)cn1 (stereo not drawn) [Compound 40, 7-(2-(6-(trifluoromethyl)pyridin-3-yl)ethyl)-2,3,5,6,7,11c-hexahydro-1H-pyrido[3′,2′:4,5]pyrrolo[2,3-g]indolizine]
[4]; 0.1 μM ligand concentration
  Percent Inhibition of ligand binding Serotonin 5-HT2A: 6%
[6]; 0.1 μM ligand concentration
  Percent Inhibition of ligand binding Serotonin 5-HT6: 1%
[7]; 0.1 μM ligand concentration
  Percent Inhibition of ligand binding Serotonin 5-HT7: 10%

## Cc1cnc2c(c1)c1c(n2CCc2ccc(C(F)(F)F)nc2)CCN2CCCC12 (stereo not drawn) [Compound 43, 10-methyl-7-(2-(6-(trifluoromethyl)pyridin-3-yl)ethyl)-2,3,5,6,7,11c-hexahydro-1H-pyrido[3′,2′:4,5]pyrrolo[2,3-g]indolizine]
[4]; 0.1 μM ligand concentration
  Percent Inhibition of ligand binding Serotonin 5-HT2A: 7%
[6]; 0.1 μM ligand concentration
  Percent Inhibition of ligand binding Serotonin 5-HT6: 5%
[7]; 0.1 μM ligand concentration
  Percent Inhibition of ligand binding Serotonin 5-HT7: 22%

## CC(=Cn1c2c(c3cc(C)ccc31)C1CCCN1CC2)c1ccc(F)cc1 (stereo in doubt) [Compound 4, (E)-7-(2-(4-fluorophenyl)prop-1-enyl)-10-methyl-2,3,5,6,7,11c-hexahydro-1H-indolizino[7,8-b]indole]
[1]
  Binding data (Percentage Inhibition) Histamine Binding H1: 53%
  inhibition at 1 µM: 41%
[2]
  inhibition at 1 µM: 75%
[3]; 0.1 μM ligand conc.
  Percent Inhibition of ligand binding Dopamine D2L: 59%
[3]; 1 μM ligand conc.
  Percent Inhibition of ligand binding Dopamine D2L: 90%
[4]; 0.1 μM ligand concentration
  Percent Inhibition of ligand binding Serotonin 5-HT2A: 87%
[4]; 1 μM ligand concentration
  Percent Inhibition of ligand binding Serotonin 5-HT2A: 99%
[5]; 0.1 μM ligand concentration
  Percent Inhibition of ligand binding Serotonin 5-HT2C: 88%
[5]; 1 μM ligand concentration
  Percent Inhibition of ligand binding Serotonin 5-HT2C: 99%
[6]; 0.1 μM ligand concentration
  Percent Inhibition of ligand binding Serotonin 5-HT6: 100%
[6]; 1 μM ligand concentration
  Percent Inhibition of ligand binding Serotonin 5-HT6: 103%
[7]; 1 μM ligand concentration
  Percent Inhibition of ligand binding Serotonin 5-HT7: 101%

## CC(=Cn1c2c(c3cc(C)ccc31)CN1CCCC1C2)c1ccc(F)cc1 (stereo in doubt) [Compound 3, (E)-10-(2-(4-fluorophenyl)prop-1-enyl)-7-methyl-2,3,5,10,11,11a-hexahydro-1H-indolizino [7,6-b]indole]
[1]
  inhibition at 1 µM: 88%
[2]
  inhibition at 1 µM: 97%
[3]; 1 μM ligand conc.
  Percent Inhibition of ligand binding Dopamine D2L: 11%
[4]; 1 μM ligand concentration
  Percent Inhibition of ligand binding Serotonin 5-HT2A: 90%
[5]; 1 μM ligand concentration
  Percent Inhibition of ligand binding Serotonin 5-HT2C: 99%
[6]; 1 μM ligand concentration
  Percent Inhibition of ligand binding Serotonin 5-HT6: 101%
[7]; 1 μM ligand concentration
  Percent Inhibition of ligand binding Serotonin 5-HT7: 94%

## CC(=Cn1c2c(c3cc(C)ccc31)C1CCCCN1CC2)c1ccc(F)cc1 (stereo in doubt) [Compound 6, (E)-8-(2-(4-fluorophenyl)prop-1-enyl)-11-methyl-1,2,3,4,6,7,8,12c-octahydroindolo[3,2-a]quinolizine]
[1]
  inhibition at 1 µM: 28%
[2]
  inhibition at 1 µM: 67%
[3]; 1 μM ligand conc.
  Percent Inhibition of ligand binding Dopamine D2L: 94%
[4]; 1 μM ligand concentration
  Percent Inhibition of ligand binding Serotonin 5-HT2A: 99%
[5]; 1 μM ligand concentration
  Percent Inhibition of ligand binding Serotonin 5-HT2C: 94%
[6]; 1 μM ligand concentration
  Percent Inhibition of ligand binding Serotonin 5-HT6: 105%
[7]; 1 μM ligand concentration
  Percent Inhibition of ligand binding Serotonin 5-HT7: 92%
